# Experimental data from patent US20120016019A1, “PHARMACEUTICAL COMPOSITION FOR TREATING OR PREVENTING CANCER” (priority 2010, published 2012).
# Several values for one entry are separate records, joined by “and”; a condition that tells them apart may be missing. Identical values can stand only once. Like-named read-outs stand apart in the source and are kept apart here.
# How the values were obtained:
# [1] = tested on: HeLa; conditions: human, 0 h, 220 nM
# Method: (§1) Cells were plated into 48-well Corning CellBind™ plates at densities of 20,000 cells for normal cells and 10,000˜20,000 cells for cancer cells. 24 to 48 h after plating, cells were treated with the composition according to the invention at concentrations of 4.5e-2M. The first time point treated with the composition of the invention is 0 h. At 3 days after the first treatment with the composition of the invention, medium was changed and the composition of the invention at the same concentrations were added to the cultured cells.
# (§2) Cells were harvested using Trypsin-EDTA at the designated time points. When total cells for each well were counted with a Beckman-Coulter Z1 Particle Characterization Unit, the vertical axis represents 1/20 of cell number in the Figures attached to the specification, while when counted with a Beckman-Coulter Vi-Cell, the vertical axis represents cell number in the Figures. Two 48-well plates were used per cell line, and they were measured at 0 h, 12 h, 24 h, 48 h, 4 d and 7 d, respectively.
# (§3) The viability was determined by using the trypan blue staining in the well of cell counting.
# [2] = tested on: MDA-MB-231; conditions: human, 0 h, 220 nM
# Method: as §1, §2, §3
# [3] = tested on: RKO; conditions: human, 220 nM
# Method: as §1, §2, §3
# [4] = tested on: SKBR3; conditions: human, 220 nM
# Method: as §1, §2, §3
# [5] = tested on: C-6
# Method: (§4) Cancer cell lines HCC 1419, MCF-7, MDA-MB-468, SKBR3, PC3, HT1299, Saos-2, C-6, AsPc, MDA-MB-231, RKO, HeLa and TT, and normal cell lines HME 50 HT, BJ and CCD-1074sk were tested for changes in metabolism (XTT assay) and cell death (cell counts).
# as §1
# (§5) The XTT assay is an accepted analysis technique for viability and cytotoxicity of anticancer drugs or other pharmaceutical compositions. Cells were seeded in a 96-well tissue culture plate at a density of 10,000 cells for normal cells and 5,000 cells for cancer cells. After incubation period, the formazan dye formed was quantitated using an ELISA reader. The optimal wavelength used in experiments was 500 nm, and it was measured at 0 h, 12 h, 24 h, 48 h, 4 d and 7 d, respectively. The obtained values were generated using the software SoftMax Pro 4.8.
# (§6) The cell viability was calculated according to the manufacturer's instructions as follows (the term “blank” means XTT in medium only):
# (§7) Cellular cytotoxicity was calculated according to the manufacturer's instructions as follows: […]
# [6] = tested on: HT 1299; conditions: for The cytotoxicity / The viability: 220 nM; for The absorbance / The absorbance, Mean value / The absorbance, group - Blank: HT 1299
# Method: as §4, §1, §5, §6, §7
# [7] = XTT 500 nm, 2nd week (recovery), 0 h
# [8] = XTT 500 nm, 2nd week (recovery), 24 h
# [9] = XTT 500 nm, 2nd week (recovery), 48 h
# [10] = XTT 500 nm, 2nd week (recovery), 4 d
smiles,measurement,setting,value
CC(=O)O[C@H]1C(=O)[C@@]2(C)[C@H]([C@H](OC(=O)c3ccccc3)[C@]3(O)C[C@H](OC(=O)[C@H](O)[C@@H](NC(=O)c4ccccc4)c4ccccc4)C(C)=C1C3(C)C)[C@]1(OC(C)=O)CO[C@@H]1C[C@@H]2O [Taxol],"viability (%), Mean value",[1],75.4%
same,"viability (%), Mean value",[2],44.2%
same,"viability (%), Mean value",[3]; 0 h,40%
same,"viability (%), Mean value",[3]; 24 h,43%
same,"viability (%), Mean value",[4]; 24 h,70%
same,viability (%) calculated from the cell counts,[4]; 48 h,0%
same,"viability (%), Mean value",[4]; 48 h,17%
same,viability (%) calculated from the cell counts,[4]; 4 d,0%
same,"viability (%), Mean value",[4]; 4 d,33%
same,"viability (%), Mean value",[4]; 7 d,50%
same,The absorbance,"[5]; C-6, 1st week (LC50), 0 h",2.6477 and 2.6197 and 2.482
same,"The absorbance, Mean value","[5]; C-6, 1st week (LC50), 0 h",2.5831
same,"The absorbance, group - Blank","[5]; C-6, 1st week (LC50), 0 h",2.0608
same,The absorbance,"[5]; C-6, 1st week (LC50), 12 h",2.851 and 2.8475 and 2.6595
same,"The absorbance, Mean value","[5]; C-6, 1st week (LC50), 12 h",2.7860
same,"The absorbance, group - Blank","[5]; C-6, 1st week (LC50), 12 h",2.2637
same,The absorbance,"[5]; C-6, 1st week (LC50), 24 h",2.6263 and 2.6408 and 2.7106
same,"The absorbance, Mean value","[5]; C-6, 1st week (LC50), 24 h",2.6592
same,"The absorbance, group - Blank","[5]; C-6, 1st week (LC50), 24 h",2.1369
same,The absorbance,"[5]; C-6, 1st week (LC50), 48 h",2.5907 and 2.3173 and 2.5122
same,"The absorbance, Mean value","[5]; C-6, 1st week (LC50), 48 h",2.4734
same,"The absorbance, group - Blank","[5]; C-6, 1st week (LC50), 48 h",1.9511
same,The absorbance,"[5]; C-6, 1st week (LC50), 4 d",3.4031 and 2.4181 and 2.3613
same,"The absorbance, Mean value","[5]; C-6, 1st week (LC50), 4 d",2.7275
same,"The absorbance, group - Blank","[5]; C-6, 1st week (LC50), 4 d",2.2052
same,The absorbance,"[5]; C-6, 1st week (LC50), 7 d",2.334 and 2.3441 and 2.3017
same,"The absorbance, Mean value","[5]; C-6, 1st week (LC50), 7 d",2.3266
same,"The absorbance, group - Blank","[5]; C-6, 1st week (LC50), 7 d",1.8043
same,The absorbance,"[5]; C-6, 2nd week (recovery), 0 h",2.7171 and 2.4409 and 2.6926
same,"The absorbance, Mean value","[5]; C-6, 2nd week (recovery), 0 h",2.6169
same,"The absorbance, group - Blank","[5]; C-6, 2nd week (recovery), 0 h",2.0945
same,The absorbance,"[5]; C-6, 2nd week (recovery), 24 h",1.9908 and 2.3106 and 2.2634
same,"The absorbance, Mean value","[5]; C-6, 2nd week (recovery), 24 h",2.1883
same,"The absorbance, group - Blank","[5]; C-6, 2nd week (recovery), 24 h",1.6659
same,The absorbance,"[5]; C-6, 2nd week (recovery), 48 h",3.111 and 2.4572 and 2.7053
same,"The absorbance, Mean value","[5]; C-6, 2nd week (recovery), 48 h",2.7578
same,"The absorbance, group - Blank","[5]; C-6, 2nd week (recovery), 48 h",2.2355
same,The absorbance,"[5]; C-6, 2nd week (recovery), 4 d",2.6888 and 2.7862 and 2.8075
same,"The absorbance, Mean value","[5]; C-6, 2nd week (recovery), 4 d",2.7608
same,"The absorbance, group - Blank","[5]; C-6, 2nd week (recovery), 4 d",2.2385
same,The viability,"[5]; C-6, 2nd week (recovery), 4 d",0.8937
same,The absorbance,"[5]; C-6, 2nd week (recovery), 7 d",2.4639 and 2.1497 and 2.4909
same,"The absorbance, Mean value","[5]; C-6, 2nd week (recovery), 7 d",2.3682
same,"The absorbance, group - Blank","[5]; C-6, 2nd week (recovery), 7 d",1.8458
same,The cytotoxicity,"[5]; rat, 12 h, 220 nM",0.1898
same,The viability,"[5]; rat, 12 h, 220 nM",0.8102
same,The viability,"[5]; rat, 4 d, 220 nM",0.8804
same,The cytotoxicity,[6]; 0 h,0.0206
same,The viability,[6]; 0 h,0.9794
same,The cytotoxicity,[6]; 12 h,0.0709
same,The viability,[6]; 12 h,0.9291
same,The cytotoxicity,[6]; 24 h,0.0409
same,The viability,[6]; 24 h,0.9591
same,The cytotoxicity,[6]; 48 h,0.0368
same,The viability,[6]; 48 h,0.9632
same,The viability,[6]; 4 d,0.8406
same,The viability,[6]; 7 d,0.3389
same,The absorbance,"[6]; 1st week (LC50), 0 h",2.7643 and 2.716 and 2.6703
same,"The absorbance, Mean value","[6]; 1st week (LC50), 0 h",2.7169
same,"The absorbance, group - Blank","[6]; 1st week (LC50), 0 h",2.5063
same,The absorbance,"[6]; 1st week (LC50), 12 h",2.8939 and 2.8933 and 2.8787
same,"The absorbance, Mean value","[6]; 1st week (LC50), 12 h",2.8886
same,"The absorbance, group - Blank","[6]; 1st week (LC50), 12 h",2.6781
same,The absorbance,"[6]; 1st week (LC50), 24 h",2.7759 and 2.8539 and 2.8128
same,"The absorbance, Mean value","[6]; 1st week (LC50), 24 h",2.8142
same,"The absorbance, group - Blank","[6]; 1st week (LC50), 24 h",2.6036
same,The absorbance,"[6]; 1st week (LC50), 48 h",2.5408 and 2.6225 and 2.6333
same,"The absorbance, Mean value","[6]; 1st week (LC50), 48 h",2.5989
same,"The absorbance, group - Blank","[6]; 1st week (LC50), 48 h",2.3883
same,The absorbance,"[6]; 1st week (LC50), 4 d",2.817 and 2.6791 and 2.5786
same,"The absorbance, Mean value","[6]; 1st week (LC50), 4 d",2.6916
same,"The absorbance, group - Blank","[6]; 1st week (LC50), 4 d",2.4810
same,The absorbance,"[6]; 1st week (LC50), 7 d",1.504
same,"The absorbance, group - Blank","[6]; 1st week (LC50), 7 d",1.0771
same,"The absorbance, Mean value",[6]; [7],2.0676
same,"The absorbance, group - Blank",[6]; [7],1.7954
same,The absorbance,"[6]; XTT 500 nm, 2nd week (recovery), 0 h, single wells",1.9675 and 1.8392 and 2.3962
same,"The absorbance, Mean value",[6]; [8],2.6177
same,"The absorbance, group - Blank",[6]; [8],2.3455
same,The absorbance,"[6]; XTT 500 nm, 2nd week (recovery), 24 h, single wells",2.6918 and 2.5521 and 2.6093
same,"The absorbance, Mean value",[6]; [9],2.4695
same,"The absorbance, group - Blank",[6]; [9],2.1973
same,"The absorbance, Mean value",[6]; [10],2.3404
same,"The absorbance, group - Blank",[6]; [10],2.0681
same,The absorbance,"[6]; XTT 500 nm, 2nd week (recovery), 4 d, single wells",2.6902 and 1.9256 and 2.4054
same,The cytotoxicity,"[6]; human, 0 h",0.2984
same,The viability,"[6]; human, 0 h",0.7016
same,The cytotoxicity,"[6]; human, 24 h",0.1360
same,The viability,"[6]; human, 24 h",0.8640
same,The cytotoxicity,"[6]; human, 48 h",0.1139
same,The viability,"[6]; human, 48 h",0.8861
same,The viability,"[6]; human, 4 d",0.7007
same,The cytotoxicity,"[6]; human, 7 d",0.6611
